Reference: patent publication US7700347B2, “Methods and apparatuses for conducting assays in animals” (The Forsyth Institute, priority 2005, dated 2010)

Tested on: planaria
Test: planaria movement (worm mobility) after drug treatment, automated tracking
Assay type: in vivo, Dugesia tigrinia
Conditions: 24 hours of drug treatment, movement observed for three hours, compared to control carrier (water+DMSO), statistically significant
Procedure: The following methods were used for Examples 5-8. The species of planaria used in these studies was Dugesia tigrinia, obtained from Ward's Natural Science. The planaria colonies were stored in natural spring water at 22.5° C., and kept on a 9 hour light/15 hour dark cycle. The colonies were fed once per week with organic beef liver. Their water was changed several hours after feeding and 3 days following each feeding. Worms were not fed (e.g., they were starved) the week they were used in an experiment because starved worms were less likely to fission during the experiment.
For the duration of an experiment, individual worms were placed in a reaction well and a plurality of reaction wells were arrayed, as shown in FIG. 10. The worms were not fed during the experiment. Each reaction well included electrodes made of a 90%/10% platinum/iridium alloy for delivering current. […]
FIG. 16 summarizes results depicting the effects of two agents on planaria behavior. Specifically, we assessed the effects of two psychiatric drugs that modulate serotonergic signaling, p-chlorophenylalanine (PCPA) and reserpine, on worm mobility.
Briefly, planaria were cultured in the presence of control carrier (water+DMSO), 625 micrograms/mL of PCPA, or 21 micrograms/mL of reserpine. […] The speed, position, and distance traveled of individual worms were monitored following drug treatment and compared to controls. […]

SMILES: N[C@@H](Cc1ccc(Cl)cc1)C(=O)O (racemic) [PCPA, p-chlorophenylalanine]
- effect on planaria movement (worm movement, average speed) (625 micrograms/mL in culture): increased planaria movement

SMILES: COC(=O)[C@H]1[C@H]2C[C@@H]3c4[nH]c5cc(OC)ccc5c4CCN3C[C@H]2C[C@@H](OC(=O)c2cc(OC)c(OC)c(OC)c2)[C@@H]1OC [reserpine]
- effect on planaria movement (worm movement, average speed) (21 micrograms/mL in culture): decreased planaria movement
